Results on 16 molecules are retold here after patent publication US11225480B2, “Malic enzyme inhibitors” (SUN PHARMA ADVANCED RESEARCH COMPANY LTD, priority 2019, dated 2022).

Counter-ions that a name gives are not always drawn.

This experiment deals with T1, human ME3 enzyme (Homo sapiens, UniProt Q16798).
T1 sequence (Q16798 1-604): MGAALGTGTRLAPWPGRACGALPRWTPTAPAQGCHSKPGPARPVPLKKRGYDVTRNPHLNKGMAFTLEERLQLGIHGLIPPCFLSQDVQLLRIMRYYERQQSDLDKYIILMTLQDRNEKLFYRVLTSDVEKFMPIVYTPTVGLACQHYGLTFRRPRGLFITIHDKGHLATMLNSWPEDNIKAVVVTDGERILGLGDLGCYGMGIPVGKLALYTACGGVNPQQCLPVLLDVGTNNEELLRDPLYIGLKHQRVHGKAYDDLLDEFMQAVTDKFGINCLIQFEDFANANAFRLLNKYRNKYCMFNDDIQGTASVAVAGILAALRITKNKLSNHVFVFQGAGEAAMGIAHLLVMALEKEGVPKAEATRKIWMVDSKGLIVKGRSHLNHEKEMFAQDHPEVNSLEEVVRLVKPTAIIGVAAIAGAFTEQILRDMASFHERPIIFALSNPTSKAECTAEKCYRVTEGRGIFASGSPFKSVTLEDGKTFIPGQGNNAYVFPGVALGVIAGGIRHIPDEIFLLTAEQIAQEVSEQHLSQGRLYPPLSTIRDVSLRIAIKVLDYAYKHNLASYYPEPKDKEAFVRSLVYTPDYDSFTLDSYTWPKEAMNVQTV
Put plainly: ME3 inhibition assay (diaphorase/resazurin coupled fluorescence). The format is biochemical. Conditions: 10 μM compound concentration; read-out: Malic Enzyme 3 % inhibition (10 μM). How it is done:
ME3 catalyzes the oxidative decarboxylation of malate to pyruvate with conversion of the co-factor β-NADP+ to NADPH. In the fluorescence assay, a coupled reaction is set up wherein an enzyme, Diaphorase, utilizes NADPH generated by ME3, to convert the dye resazurin to a fluorescent molecule resorufin.
The enzyme activity inhibition assay is set up in a 200 μL final reaction volume in a 96-well plate. As per the experimental design, 2 μL of the test compounds at 100× the desired concentration (10 μM) in DMSO were added to the respective wells with 178 μL of assay buffer (50 mM Tris-HCl pH 7.5, 10 mM MnCl2, 3 mM L-malate, 50 μM Resazurin and 0.025 mg/ml Diapharose). The 96-well plate was incubated on a plate shaker at room temperature for 15 minutes protected from light. The well contents were gently mixed by adding 10 μL of 20 nM human ME3 enzyme to the wells and the plate was incubated on a shaker at room temperature for 5 minutes protected from light. Suitable enzyme only and no enzyme controls were included in the experiment. The enzyme reaction was started by adding 10 μL of 1 mM D-NADP+. The reaction was gently mixed and the plate was initially left on a shaker at room temperature for ˜7 minutes protected from light. Later, the plate was incubated without shaking at room temperature for 3 hours. At the end of 3 hours, the fluorescence of the wells was measured at excitation 540 nm and emission 600 nm.
In general terms: Resazurin is reduced to fluorescent resorufin, in cell work by metabolically active cells.

One may read the inhibition as the relative decrease from the control value, in per cent. On to `CN(CC(=O)N1CCN(c2ccc(O)cn2)CC1)S(=O)(=O)c1cccc2cccnc12` [I.89, quinoline-8-sulfonic acid {2-[4-(5-hydroxypyridin-2-yl)-piperazin-1-yl]-2-oxo-ethyl}-methylamide], for which the inhibition at 10 µM is more than 90%. With `CC(C)Cc1ccc(CCC(=O)N2CCN(c3ccc(O)cn3)CC2)cc1` [I.90, 1-[4-(5-Hydroxy-pyridin-2-yl)-piperazin-1-yl]-3-(4-isobutyl-phenyl)-propan-1-one], the inhibition at 10 µM was more than 90%. As for `O=C(Cc1ccc(F)cc1F)N1CCN(c2ccc(O)cn2)CC1` [I.91, 2-(2,4-Difluoro-phenyl)-1-[4-(5-hydroxy-pyridine-2-yl)-piperazin-1-yl]-ethanone], the inhibition at 10 µM is more than 90%. As to `O=C(CSc1ccc([N+](=O)[O-])cn1)N1CCN(c2ccc(O)cn2)CC1` [I.97, 1-[4-(5-hydroxy-pyridin-2-yl)-piperazin-1-yl]-2-(5-nitro-pyridin-2-ylsulfanyl)-ethanone], the inhibition at 10 µM was more than 90%. The value for `O=C(CCC12CC3CC(CC(C3)C1)C2)N1CCN(c2ccc(O)cn2)CC1` [I.98, 3-(1-Adamantyl)-1-[4-(5-hydroxy-2-pyridyl)-piperazin-1-yl]propan-1-one] was more than 90%; that for `O=C(C(c1ccccc1)C1CCCCC1)N1CCN(c2ccc(O)cn2)CC1` (stereo not shown) [I.99, 2-Cyclo-hexyl-1-[4-(5-hydroxy-2-pyridyl)-piperazin-1-yl]-2-phenyl-ethanone] was more than 90%; that for `O=C(CCc1ccc(O)cc1)N1CCN(c2ccc(O)cn2)CC1` [I.100, 3-(4-Hydroxy-phenyl)-1-[4-(5-hydroxy-pyridin-2-yl)-piperazin-1-yl]-propan-1-one] was more than 90%.

On to `COc1ccc(CCC(=O)N2CCN(c3ccc(O)cn3)CC2)cc1` [I.101, 3-(4-Methoxy-phenyl)-1-[4-(5-hydroxy-pyridin-2-yl)-piperazin-1-yl]-propan-1-one hydrochloride], for which the inhibition at 10 µM is more than 90%. The value for `O=C(CCc1ccccc1Br)N1CCN(c2ccc(O)cn2)CC1` [I.102, 3-(2-Bromo-phenyl)-1-[4-(5-hydroxy-pyridin-2-yl)-piperazin-1-yl]-propan-1-one] was more than 90%. In the case of `O=C(CCc1ccc(Br)cc1)N1CCN(c2ccc(O)cn2)CC1` [I.103, 3-(4-Bromo-phenyl)-1-[4-(5-hydroxy-pyridin-2-yl)-piperazin-1-yl]-propan-1-one] it was more than 90%. For `COC(=O)C1C2CCC(O2)C1C(=O)N1CCN(c2ccc(O)cn2)CC1` (stereo not shown) [I.104, 3-[4-(5-Hydroxy-pyridin-2-yl)-piperazine-1-carbonyl]-7-oxa-bicyclo-[2.2.1]heptane-2-carboxylic acid methyl ester], the inhibition at 10 µM was 70 to 89%. On to `O=C(O)C1C2CCC(O2)C1C(=O)N1CCN(c2ccc(O)cn2)CC1` (stereo not shown) [I.105, 3-[4-(5-Hydroxy-pyridin-2-yl)-piperazine-1-carbonyl]-7-oxa-bicyclo-[2.2.1]heptane-2-carboxylic acid], for which the inhibition at 10 µM was more than 90%.

With `O=C(C(=O)N1CCN(c2ccc(O)cn2)CC1)c1c[nH]c2ccccc12` [I.106, 1-[4-(5-Hydroxy-pyridin-2-yl)-piperazin-1-yl]-2-(1H-indol-3-yl)-ethane-1,2-dione], the inhibition at 10 µM is more than 90%. The value for `CN(C)c1ccc(CCC(=O)N2CCN(c3ccc(O)cn3)CC2)cc1` [I.108, 3-(4-Dimethyl-aminophenyl)-[4-(5-hydroxy-pyridin-2-yl)-piperazin-1-yl]-propan-1-one] was more than 90%. Regarding `COc1ccccc1CCC(=O)N1CCN(c2ccc(O)cn2)CC1` [I.109, 1-[4-(5-Hydroxy-pyridin-2-yl)-piperazin-1-yl]-3-(2-methoxy-phenyl)-propan-1-one], the inhibition at 10 µM is more than 90%. For the molecule `Cc1ccc(CCC(=O)N2CCN(c3ccc(O)cn3)CC2)cc1` [I.110, 1-[4-(5-Hydroxy-pyridin-2-yl)-piperazin-1-yl]-3-p-tolyl-propan-1-one], the inhibition at 10 µM was more than 90%.
